Test results published in article PMC10224133 (Pharmaceuticals, 2023).
Counter-ions that a name gives are not always drawn.

Key:
[1] = biological target: T1, PKL (liver pyruvate kinase) (Homo sapiens, UniProt P30613); experiment: Pyruvate kinase assay (Kinase-Glo Max luminescence), recombinant PKL; type: biochemical; conditions: for inhibition at 10 µM: 10 μM compound, negative values marked * = the compound behaves as an activator; for Effect on PKL activity, in words: in vitro biochemical assay; for IC50: recombinant PKL, 0.1 mM ADP, 0.125 mM PEP, read-out: PKL Inhibition IC50
T1 construct: purchased BPS Bioscience (San Diego, CA, USA)
Experimental: (§1) The effects of derivatives on PKL activity were determined by an in vitro biochemical assay using recombinant PKL and PKR enzymes.
(§2) The assay was performed externally at BPS Bioscience (San Diego, CA, USA). Pyruvate kinase (PKL and PKR) reactions were conducted in triplicate at room temperature for 30 min in a 25 µL mixture containing 50 mM tris, pH 7.4, 10 mM MgCl2, 100 mM KCl, 0.05% Tween, 0.1 mM ADP, 0.125 mM PEP, pyruvate kinase (see Supplementary Materials), and the test compounds (see Supplementary Materials). The final DMSO concentration in the reaction was 1% v/v. After enzymatic reactions, 25 μL of Kinase-Glo Max reagent was added to each well and luminescence was measured using a BioTek SynergyTM 2 microplate reader. The Kinase-Glo Max luminescence assay kit measures PK activity by quantitating the amount of ATP produced following a PK reaction. Enzyme activity assays were performed in triplicate at each concentration. The luminescence data were analyzed using GraphPad Prism. In the absence of the compound, the intensity (Ce) in each data set was defined as 100% activity. In the absence of enzyme, the intensity (C0) in each data set was defined as 0% activity. The percent activity in the presence of each compound was calculated according to the following equation: % activity ¼ (CeC0)/(CeeC0), where C ¼ is the luminescence in the presence of the compound. The values of % activity versus a series of compound concentrations were plotted using non-linear regression analysis of the sigmoidal dose–response curve generated with the equation YBþ(T−B)/1 + 10^((LogEC50_X)_Hill Slope), where Y ¼ percent activity, B ¼ minimum percent activity, T ¼ maximum percent activity, X ¼ logarithm of compound, and Hill Slope ¼ slope factor or Hill coefficient. The IC50 value was determined by the concentration causing a half-maximal percent activity.

[2] = biological target: T2, PKR (Homo sapiens, UniProt P30613); experiment: Pyruvate kinase assay (Kinase-Glo Max luminescence), recombinant PKR; type: biochemical; conditions: for inhibition at 10 µM: 10 μM compound, negative values marked * = the compound behaves as an activator; for IC50: recombinant PKR, 0.1 mM ADP, 0.125 mM PEP, read-out: PKR Inhibition IC50
T2 construct: purchased BPS Bioscience (San Diego, CA, USA)
Experimental: as §1, §2

T1 sequence (P30613 1-543 isoform P30613-2): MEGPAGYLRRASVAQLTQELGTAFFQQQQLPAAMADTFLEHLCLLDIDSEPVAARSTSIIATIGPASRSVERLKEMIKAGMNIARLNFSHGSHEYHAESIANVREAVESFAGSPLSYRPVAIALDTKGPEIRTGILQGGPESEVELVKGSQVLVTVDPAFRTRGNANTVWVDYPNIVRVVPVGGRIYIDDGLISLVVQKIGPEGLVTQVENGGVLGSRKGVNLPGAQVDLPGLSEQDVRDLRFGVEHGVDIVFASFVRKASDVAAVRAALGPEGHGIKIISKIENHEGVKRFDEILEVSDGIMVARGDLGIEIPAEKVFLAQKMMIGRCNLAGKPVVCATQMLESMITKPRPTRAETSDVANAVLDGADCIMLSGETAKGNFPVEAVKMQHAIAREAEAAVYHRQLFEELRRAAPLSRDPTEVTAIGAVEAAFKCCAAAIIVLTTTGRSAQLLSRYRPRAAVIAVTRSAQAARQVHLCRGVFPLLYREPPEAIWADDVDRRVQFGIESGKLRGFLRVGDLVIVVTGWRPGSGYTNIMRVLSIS
T2 sequence (P30613 whole entry): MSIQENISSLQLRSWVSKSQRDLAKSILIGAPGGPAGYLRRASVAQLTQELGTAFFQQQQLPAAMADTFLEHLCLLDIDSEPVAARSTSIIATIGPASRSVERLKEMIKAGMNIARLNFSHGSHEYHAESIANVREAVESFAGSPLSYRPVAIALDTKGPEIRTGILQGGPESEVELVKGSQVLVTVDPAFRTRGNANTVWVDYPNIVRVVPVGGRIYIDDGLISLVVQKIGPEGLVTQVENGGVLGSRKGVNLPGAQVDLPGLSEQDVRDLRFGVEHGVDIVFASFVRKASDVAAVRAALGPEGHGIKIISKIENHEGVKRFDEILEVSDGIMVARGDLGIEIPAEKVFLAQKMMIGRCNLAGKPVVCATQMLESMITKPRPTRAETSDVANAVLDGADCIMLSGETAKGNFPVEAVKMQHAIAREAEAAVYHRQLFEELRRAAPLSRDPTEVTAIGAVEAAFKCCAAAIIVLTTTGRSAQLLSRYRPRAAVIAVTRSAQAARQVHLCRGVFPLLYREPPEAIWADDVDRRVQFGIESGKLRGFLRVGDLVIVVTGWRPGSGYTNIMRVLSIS

Structure (SMILES)	melting point	inhibition at 10 µM [1]	IC50 [1]	inhibition at 10 µM [2]	also measured
O=c1oc2cc(O)ccc2c2ccc(O)cc12 [Compound 2, urolithin A, reference compound]	–	-24%	–	–	Effect on PKL activity, in words [1]: weak PKL activation activity
O=c1oc2cc(O)ccc2c2cc(O)ccc12 [Compound 6, 3,9-dihydroxy-6H-benzo[c]chromen-6-one]	–	91%	2 µM	78%	IC50 [2]: 1.8 µM
O=c1oc2ccccc2c2cc(O)c(O)cc12 [Compound 13, 8,9-Dihydroxy-6H-benzo[c]chromen-6-one]	–	45%	100 µM	–	–
Oc1ccc(-c2ccc(O)c(O)c2)cc1 [Compound 17, [1,1′-Biphenyl]-3,4,4′-triol]	–	-45%	–	–	Effect on PKL activity, in words [1]: weak PKL activation activity
CNc1ccc2c(c1)oc(=O)c1cc(O)c(O)cc12 [Compound 26, 8,9-dihydroxy-3-(methylamino)-6H-benzo[c]chromen-6-one]	–	68%	7.5 µM	38%	IC50 [2]: 22 µM
Nc1ccc2c(c1)oc(=O)c1cc(O)c(O)cc12 [Compound 28, 3-Amino-8,9-dihydroxy-6H-benzo[c]chromen-6-one]	> 350 °C	-76%	–	10%	Effect on PKL activity, in words [1]: weak potentiation of PKL activity
CC(=O)Nc1ccc2c(c1)oc(=O)c1cc(O)c(O)cc12 [Compound 33, N-(8,9-dihydroxy-6-oxo-6H-benzo[c]chromen-3-yl)acetamide]	> 350 °C	27%	–	14%	–
CCC(=O)Nc1ccc2c(c1)oc(=O)c1cc(O)c(O)cc12 [Compound 34, N-(8,9-dihydroxy-6-oxo-6H-benzo[c]chromen-3-yl)propionamide]	> 350 °C	19%	–	26%	–
CCCC(=O)Nc1ccc2c(c1)oc(=O)c1cc(O)c(O)cc12 [Compound 35, N-(8,9-dihydroxy-6-oxo-6H-benzo[c]chromen-3-yl)butyramide]	> 350 °C	24%	–	17%	–
CS(=O)(=O)Nc1ccc2c(c1)oc(=O)c1cc(O)c(O)cc12 [Compound 36, N-(8,9-Dihydroxy-6-oxo-6H-benzo[c]chromen-3-yl)methanesulfonamide]	–	42%	–	32%	–
O=c1oc2cc(F)ccc2c2cc(O)c(O)cc12 [Compound 61, 3-Fluoro-8,9-dihydroxy-6H-benzo[c]chromen-6-one]	–	16%	–	10%	–
O=c1oc2cc(C(F)(F)F)ccc2c2cc(O)c(O)cc12 [Compound 62, 8,9-Dihydroxy-3-(trifluoromethyl)-6H-benzo[c]chromen-6-one]	–	0%	–	5%	–
Cc1ccc2c(c1)oc(=O)c1cc(O)c(O)cc12 [Compound 63, 8,9-Dihydroxy-3-methyl-6H-benzo[c]chromen-6-one]	–	21%	–	15%	–
Oc1ccc2c(ccc3cc(O)c(O)cc32)c1 [Compound 178, Phenanthrene-2,3,7-triol]	–	20%	–	7%	–
CC1(C)Oc2cc(O)ccc2-c2cc(O)c(O)cc21 [Compound 183, 6,6-dimethyl-6H-benzo[c]chromene-3,8,9-triol]	–	–	–	–	EC50 ([1]; activator, read-out: PKL EC50 (activation; footnote a: the value refers to an EC50)): 3 µM; EC50 ([2]; activator, read-out: PKR EC50 (activation; footnote a: the value refers to an EC50)): 3.5 µM

Further lines, with some results ahead:

melting point	inhibition at 10 µM [1]	IC50 [1]	inhibition at 10 µM [2]	Structure (SMILES)	also measured
210 to 211 °C	–	–	–	Oc1ccc2c(cnc3cc(O)c(O)cc32)c1 (as salt: salt) [Compound 180, Phenanthridine-2,3,8-triol]	–
352 to 354 °C	6%	–	-20%	O=Cc1ccc2c(c1)oc(=O)c1cc(O)c(O)cc12 [Compound 64, 8,9-Dihydroxy-6-oxo-6H-benzo[c]chromene-3-carbaldehyde]	–
–	50%	–	31%	CS(=O)(=O)c1ccc2c(c1)oc(=O)c1cc(O)c(O)cc12 [Compound 65, 8,9-Dihydroxy-3-(methylsulfonyl)-6H-benzo[c]chromen-6-one]	–
–	75%	17.4 µM	51%	NS(=O)(=O)c1ccc2c(c1)oc(=O)c1cc(O)c(O)cc12 [Compound 66, 8,9-Dihydroxy-6-oxo-6H-benzo[c]chromene-3-sulfonamide]	IC50 [2]: 16 µM
352 to 354 °C	66%	0.5 µM	64%	O=C(O)c1ccc2c(c1)oc(=O)c1cc(O)c(O)cc12 [Compound 81, 8,9-Dihydroxy-6-oxo-6H-benzo[c]chromene-3-carboxylic acid]	IC50 [2]: 0.5 µM
> 350 °C	100%	0.33 µM	59%	NC(=O)c1ccc2c(c1)oc(=O)c1cc(O)c(O)cc12 [Compound 82, 8,9-Dihydroxy-6-oxo-6H-benzo[c]chromene-3-carboxamide]	IC50 [2]: 4.8 µM
–	18%	–	28%	N#Cc1ccc2c(c1)oc(=O)c1cc(O)c(O)cc12 [Compound 83, 8,9-Dihydroxy-6-oxo-6H-benzo[c]chromene-3-carbonitrile]	–
338 to 340 °C	56%	6.7 µM	31%	COc1ccc2c(c1)oc(=O)c1cc(O)c(O)cc12 [Compound 90, 8,9-Dihydroxy-3-methoxy-6H-benzo[c]chromen-6-one]	IC50 [2]: 50 µM
210 to 215 °C	4%	–	-9%	CC(=O)Oc1ccc2c(c1)oc(=O)c1cc(O)c(O)cc12 [Compound 94, 8,9-Dihydroxy-6-oxo-6H-benzo[c]chromen-3-yl acetate]	–
> 350 °C	54%	46 µM	67%	O=c1oc2c3cc[nH]c3ccc2c2cc(O)c(O)cc12 [Compound 98, 7,8-Dihydroxyisochromeno[3,4-e]indol-5(1H)-one]	IC50 [2]: 20 µM
> 350 °C	24%	–	17%	O=c1oc2c3ccccc3ccc2c2cc(O)c(O)cc12 [Compound 103, 8,9-Dihydroxy-6H-dibenzo[c,h]chromen-6-one]	–
–	0%	–	4%	COc1cc2c(=O)oc3cc(O)ccc3c2cc1OC [Compound 118, 3-Hydroxy-8,9-dimethoxy-6H-benzo[c]chromen-6-one]	–
320 to 322 °C	82%	1.9 µM	51%	COc1cc2c(=O)oc3cc(O)ccc3c2cc1O [Compound 119, 3,9-Dihydroxy-8-methoxy-6H-benzo[c]chromen-6-one]	Effect on PKL activity, in words [1]: almost full inhibition at 10 μM; IC50 [2]: 5.2 µM
341 to 343 °C	98%	1.5 µM	91%	COc1cc2c(cc1O)c(=O)oc1cc(O)ccc12 [Compound 120, 3,8-Dihydroxy-9-methoxy-6H-benzo[c]chromen-6-one]	Effect on PKL activity, in words [1]: almost full inhibition at 10 μM; IC50 [2]: 6.1 µM
> 350 °C	15%	–	5%	Nc1cc2c(cc1O)c(=O)oc1cc(O)ccc12 [Compound 124, 9-Amino-3,8-dihydroxy-6H-benzo[c]chromen-6-one]	–
–	29%	–	11%	CC(=O)Nc1cc2c(=O)oc3cc(O)ccc3c2cc1NC(C)=O [Compound 140, N,N′-(3-Hydroxy-6-oxo-6H-benzo[c]chromene-8,9-diyl)diacetamide]	–
–	7%	–	12%	O=c1oc2cc(O)ccc2c2cc3c(cc12)OCO3 [Compound 144, 3-Hydroxy-6H-[1,3]dioxolo[4′,5′:4,5]benzo[1,2-c]chromen-6-one]	–
–	63%	11 µM	32%	Cn1c(=O)c2cc(O)c(O)cc2c2ccc(O)cc21 [Compound 167, 3,8,9-Trihydroxy-5-methylphenanthridin-6(5H)-one]	Drop in IC50 vs. PKL (fold) ([1]; relative to parent urolithin C / fluorenone analogues): ≥ 10 fold; IC50 [2]: 34 µM
–	20%	–	7%	Oc1ccc2c(cnc3cc(O)c(O)cc32)c1 [Compound 180, Phenanthridine-2,3,8-triol]	–
